Publication PMC10407959 (Journal of medicinal chemistry, 2023)
Like-named read-outs stand apart in the source and are kept apart here. Marks after values point to notes of the source that are not given here.

Tests used:
[1] = biological target: CYP3A4 (Homo sapiens, UniProt P08684); conditions: read-out: CYP3A4 (IC50); ref Wen et al. 5; cited from earlier work
[2] = pH 7.4, pION method, determined by Jai Research Foundation; ref Wen et al. 5; cited from earlier work
[3] = rat (r), ref Wen et al. 5; cited from earlier work
[4] = biological target: T1, CYP1A2 (Homo sapiens, UniProt P05177); conditions: read-out: CYP1A2 (IC50); ref Wen et al. 5; cited from earlier work
T1 sequence (P05177 1-516): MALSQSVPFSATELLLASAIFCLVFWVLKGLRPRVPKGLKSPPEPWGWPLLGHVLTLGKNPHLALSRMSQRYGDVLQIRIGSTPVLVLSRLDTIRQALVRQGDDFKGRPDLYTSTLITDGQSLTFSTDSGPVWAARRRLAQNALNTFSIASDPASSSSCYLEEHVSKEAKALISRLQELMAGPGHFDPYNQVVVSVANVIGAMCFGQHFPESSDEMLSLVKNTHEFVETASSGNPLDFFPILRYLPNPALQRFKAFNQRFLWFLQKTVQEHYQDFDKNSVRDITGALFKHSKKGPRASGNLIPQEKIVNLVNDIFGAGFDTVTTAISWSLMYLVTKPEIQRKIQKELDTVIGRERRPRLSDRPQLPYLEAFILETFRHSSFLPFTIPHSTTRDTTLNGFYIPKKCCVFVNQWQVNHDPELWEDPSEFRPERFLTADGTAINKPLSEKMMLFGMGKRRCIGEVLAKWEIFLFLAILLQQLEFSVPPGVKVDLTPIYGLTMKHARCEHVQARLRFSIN

[5] = biological target: CYP2C9 (Homo sapiens, UniProt P11712); conditions: read-out: CYP2C9 (IC50); ref Wen et al. 5; cited from earlier work
Sequence of CYP2C9 (P11712 whole entry): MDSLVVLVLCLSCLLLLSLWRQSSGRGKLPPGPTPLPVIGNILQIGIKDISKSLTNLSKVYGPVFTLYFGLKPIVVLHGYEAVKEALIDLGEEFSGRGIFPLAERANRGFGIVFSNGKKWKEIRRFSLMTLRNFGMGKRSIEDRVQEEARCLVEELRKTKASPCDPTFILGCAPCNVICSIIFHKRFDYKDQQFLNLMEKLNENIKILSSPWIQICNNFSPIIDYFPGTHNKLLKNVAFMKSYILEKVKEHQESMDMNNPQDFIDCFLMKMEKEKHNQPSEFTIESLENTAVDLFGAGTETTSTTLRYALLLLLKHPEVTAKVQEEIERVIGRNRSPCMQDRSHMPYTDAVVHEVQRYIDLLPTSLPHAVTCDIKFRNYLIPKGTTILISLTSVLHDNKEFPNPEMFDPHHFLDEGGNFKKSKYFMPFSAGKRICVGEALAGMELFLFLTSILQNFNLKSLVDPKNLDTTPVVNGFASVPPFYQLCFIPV

[6] = biological target: CYP2D6 (Homo sapiens, UniProt P10635); conditions: read-out: CYP2D6 (IC50); ref Wen et al. 5; cited from earlier work
Sequence of CYP2D6 (P10635 whole entry): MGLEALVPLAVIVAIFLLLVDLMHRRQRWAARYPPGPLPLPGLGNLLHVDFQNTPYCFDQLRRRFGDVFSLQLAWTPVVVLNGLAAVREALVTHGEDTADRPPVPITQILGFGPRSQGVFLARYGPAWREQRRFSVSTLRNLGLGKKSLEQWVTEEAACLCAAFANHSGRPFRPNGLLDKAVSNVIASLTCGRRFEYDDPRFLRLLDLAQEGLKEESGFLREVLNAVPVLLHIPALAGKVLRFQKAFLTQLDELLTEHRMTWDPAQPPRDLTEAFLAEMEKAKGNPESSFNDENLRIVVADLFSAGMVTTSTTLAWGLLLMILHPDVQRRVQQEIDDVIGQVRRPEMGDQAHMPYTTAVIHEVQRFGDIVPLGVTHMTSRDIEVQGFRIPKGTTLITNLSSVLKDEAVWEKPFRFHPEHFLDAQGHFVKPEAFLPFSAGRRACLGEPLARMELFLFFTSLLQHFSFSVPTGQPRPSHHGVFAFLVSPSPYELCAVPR

[7] = biological target: T2, hP2Y14R (Homo sapiens, UniProt Q15391); test: cell-based
T2 sequence (Q15391 1-338): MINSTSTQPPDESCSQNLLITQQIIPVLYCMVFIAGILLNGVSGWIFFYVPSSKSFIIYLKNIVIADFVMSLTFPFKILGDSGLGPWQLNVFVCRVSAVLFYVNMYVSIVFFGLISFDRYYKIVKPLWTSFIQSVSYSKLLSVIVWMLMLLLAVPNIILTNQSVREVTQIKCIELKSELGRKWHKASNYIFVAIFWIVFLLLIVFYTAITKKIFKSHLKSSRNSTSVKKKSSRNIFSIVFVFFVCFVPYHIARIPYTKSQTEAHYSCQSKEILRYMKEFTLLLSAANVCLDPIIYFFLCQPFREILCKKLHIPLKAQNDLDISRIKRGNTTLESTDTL

[8] = ref Wen et al. 5; cited from earlier work
[9] = rat, 3 mg/kg, i.p.; previous data; cited from earlier work
[10] = mouse (m), ref Wen et al. 5; cited from earlier work
[11] = biological target: CYP2C19 (Homo sapiens, UniProt P33261); conditions: read-out: CYP2C19 (IC50); ref Wen et al. 5; cited from earlier work
Sequence of CYP2C19 (P33261 whole entry): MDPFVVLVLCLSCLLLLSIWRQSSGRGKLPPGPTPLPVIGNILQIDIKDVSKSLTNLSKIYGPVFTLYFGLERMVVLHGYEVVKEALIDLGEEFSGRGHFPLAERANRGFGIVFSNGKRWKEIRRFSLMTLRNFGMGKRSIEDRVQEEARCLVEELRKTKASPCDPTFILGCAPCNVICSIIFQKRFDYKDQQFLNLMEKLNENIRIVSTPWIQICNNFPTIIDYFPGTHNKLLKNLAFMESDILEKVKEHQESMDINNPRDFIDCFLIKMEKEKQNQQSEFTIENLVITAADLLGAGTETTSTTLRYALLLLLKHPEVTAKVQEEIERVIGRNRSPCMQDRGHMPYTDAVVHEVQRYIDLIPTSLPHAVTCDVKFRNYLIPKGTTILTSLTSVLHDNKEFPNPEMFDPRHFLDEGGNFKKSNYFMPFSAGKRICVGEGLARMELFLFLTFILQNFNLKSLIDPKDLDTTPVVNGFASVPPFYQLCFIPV

[12] = ref Wen et al. 5; cited from earlier work; remark: listed apart in the source
[13] = biological target: hERG (Homo sapiens, UniProt Q12809); conditions: read-out: hERG, IC50; fluorescent dye binding method; ref Wen et al. 5; cited from earlier work
Sequence of hERG (Q12809 whole entry): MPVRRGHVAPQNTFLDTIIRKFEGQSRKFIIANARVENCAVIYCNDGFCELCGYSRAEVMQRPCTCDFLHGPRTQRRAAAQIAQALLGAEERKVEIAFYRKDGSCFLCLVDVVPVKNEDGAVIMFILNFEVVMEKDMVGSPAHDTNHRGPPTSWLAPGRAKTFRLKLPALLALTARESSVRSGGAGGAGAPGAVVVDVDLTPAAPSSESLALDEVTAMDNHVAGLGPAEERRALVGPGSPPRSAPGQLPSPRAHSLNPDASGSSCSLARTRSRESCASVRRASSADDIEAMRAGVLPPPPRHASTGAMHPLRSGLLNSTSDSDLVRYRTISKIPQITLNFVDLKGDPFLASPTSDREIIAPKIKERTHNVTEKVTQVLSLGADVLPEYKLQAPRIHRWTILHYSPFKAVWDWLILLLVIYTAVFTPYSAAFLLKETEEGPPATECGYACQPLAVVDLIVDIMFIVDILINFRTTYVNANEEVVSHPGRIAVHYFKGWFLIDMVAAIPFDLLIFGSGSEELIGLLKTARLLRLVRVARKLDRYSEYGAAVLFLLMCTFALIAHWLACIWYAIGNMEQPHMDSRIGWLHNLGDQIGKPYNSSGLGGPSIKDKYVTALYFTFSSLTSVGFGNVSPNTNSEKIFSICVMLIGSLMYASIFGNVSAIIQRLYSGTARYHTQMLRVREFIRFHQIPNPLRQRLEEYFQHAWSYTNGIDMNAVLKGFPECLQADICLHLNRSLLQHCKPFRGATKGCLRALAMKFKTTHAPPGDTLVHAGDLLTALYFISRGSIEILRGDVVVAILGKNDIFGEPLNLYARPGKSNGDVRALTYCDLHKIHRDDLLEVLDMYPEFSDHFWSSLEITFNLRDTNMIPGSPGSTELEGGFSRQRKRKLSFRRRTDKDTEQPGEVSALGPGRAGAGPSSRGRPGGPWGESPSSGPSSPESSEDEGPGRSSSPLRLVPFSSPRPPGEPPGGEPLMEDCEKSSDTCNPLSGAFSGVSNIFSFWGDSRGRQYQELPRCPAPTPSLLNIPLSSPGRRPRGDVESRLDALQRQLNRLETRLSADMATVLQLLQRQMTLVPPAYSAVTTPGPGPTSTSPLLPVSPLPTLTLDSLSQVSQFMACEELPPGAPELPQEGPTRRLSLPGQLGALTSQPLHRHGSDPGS

Sequence of CYP3A4 (P08684 whole entry): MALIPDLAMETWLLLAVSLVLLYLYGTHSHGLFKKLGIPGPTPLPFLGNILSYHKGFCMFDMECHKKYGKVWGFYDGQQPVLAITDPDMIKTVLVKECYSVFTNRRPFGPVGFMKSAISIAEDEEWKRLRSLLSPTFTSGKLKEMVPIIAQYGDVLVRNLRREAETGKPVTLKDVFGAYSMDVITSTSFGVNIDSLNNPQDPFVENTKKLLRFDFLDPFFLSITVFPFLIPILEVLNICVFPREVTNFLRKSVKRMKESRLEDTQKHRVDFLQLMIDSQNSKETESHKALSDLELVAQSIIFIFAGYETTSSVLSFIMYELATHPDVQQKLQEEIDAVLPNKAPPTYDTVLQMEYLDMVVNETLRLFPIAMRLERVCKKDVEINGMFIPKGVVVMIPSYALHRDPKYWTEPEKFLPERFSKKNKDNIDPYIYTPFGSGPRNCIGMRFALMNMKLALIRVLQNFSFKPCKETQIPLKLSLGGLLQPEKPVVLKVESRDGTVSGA

Structure (SMILES): O=C(O)c1cc(-c2ccc([C@H]3C[C@H]4C[C@@H]3CN4)cc2)c2ccc(-c3ccc(C(F)(F)F)cc3)cc2c1 [2b, 4-(4-((1S,4S,5S)-2-Azabicyclo[2.2.1]heptan-5-yl)phenyl)-7-(4-(trifluoromethyl)phenyl)-2-naphthoic Acid]
- IC50 [1]: > 30 µM
- solubility, (μg/mL) [2]: 1.90 (pH 7.4)^d μg/mL
- plasma stability (% remaining at 120 min) [3]: 82.8%
- IC50 [4]: > 30 µM
- IC50 [5]: > 30 µM
- IC50 [6]: > 30 µM
- Ki [7]: 0.00181 µM
- simulated intestinal fluid (% remaining at 120 min) [8]: 99.1%
- bioavailability [9]: 43 %F
- plasma stability (% remaining at 120 min) [10]: 100%
- IC50 [11]: > 30 µM
- simulated gastric fluid (% remaining at 120 min) [12]: 100^a %
- IC50 [13]: > 30 µM
